# Results reported in patent US10414811B2, “Protease-resistant lipidated GLP-1 analogs” (MEDIMMUNE LIMITED, priority 2015, dated 2019).
# Read-outs that look alike come from different tables or passages of the source. Numbered stars: 1 amine (or outer) side, 2 acyl side, 3 side chain; on linkers, the order of the positions; unused ones are H or OH. Square brackets hold non-standard residues; d marks the D form. Side chains are listed from the residue outwards. Peptide text beside a SMILES is read from it. * marks the point of attachment. γGlu = O=C(O)[C@H](CCC(=O)[*:2])N[*:1]; αMeF = C[C@](N)(Cc1ccccc1)C(=O)O; αMeK = C[C@](N)(CCCCN)C(=O)O; Lauroyl = CCCCCCCCCCCC(=O)*; αMeS = C[C@](N)(CO)C(=O)O; Nle = CCCC[C@H](N)C(=O)O; AEEA = NCCOCCOCC(=O)O; Aib = CC(C)(N)C(=O)O
# Columns and labels:
# Type in all cases: cell-based
# [1] = target: T1, GLP-1R (INS1e assay) (Rattus norvegicus, UniProt P32301); assay: INS1e assay, cAMP activity at GLP-1R; details: bis-lipidated peptides
# T1 construct: endogenous in cells; host or cells: INS-1E cells
# T1 sequence (P32301 22-463): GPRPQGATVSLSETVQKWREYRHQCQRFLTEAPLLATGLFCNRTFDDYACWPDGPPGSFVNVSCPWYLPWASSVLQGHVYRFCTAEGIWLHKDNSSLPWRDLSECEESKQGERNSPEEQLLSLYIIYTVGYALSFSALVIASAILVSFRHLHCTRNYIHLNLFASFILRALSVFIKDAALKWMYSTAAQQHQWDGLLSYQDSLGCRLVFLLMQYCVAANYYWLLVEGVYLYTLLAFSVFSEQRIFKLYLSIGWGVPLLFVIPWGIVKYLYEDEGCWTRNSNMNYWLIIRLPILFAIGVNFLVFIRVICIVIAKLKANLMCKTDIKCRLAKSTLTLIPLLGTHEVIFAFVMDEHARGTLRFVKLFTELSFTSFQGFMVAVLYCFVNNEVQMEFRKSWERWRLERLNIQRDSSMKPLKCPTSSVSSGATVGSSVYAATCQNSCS
# Description: cAMP levels are measured using a commercially available cAMP dynamic 2 HTRF kit (Cisbio, Cat #62AM4PEJ), following the two step protocol as per manufacturer's recommendations. In brief; anti-cAMP cryptate (donor fluorophore) and cAMP-d2 (acceptor fluorophore) are made up separately by diluting each 1/20 in conjugate & lysis buffer provided in the kit. 5 μL anti-cAMP cryptate is added to wells of the assay plate, and 5 μL cAMP-d2 is added to wells except non-specific binding (NSB) wells, to which conjugate and lysis buffer are added. […] EC50 values of the synthetic peptides determined in cAMP assays are then determined.
# [2] = target: T2, human GLP-1 receptor (GLP-1R) (Homo sapiens, UniProt P43220); assay: cAMP assay, human GLP-1R cells
# T2 construct: expressed in transfected cells
# T2 sequence (P43220 24-463): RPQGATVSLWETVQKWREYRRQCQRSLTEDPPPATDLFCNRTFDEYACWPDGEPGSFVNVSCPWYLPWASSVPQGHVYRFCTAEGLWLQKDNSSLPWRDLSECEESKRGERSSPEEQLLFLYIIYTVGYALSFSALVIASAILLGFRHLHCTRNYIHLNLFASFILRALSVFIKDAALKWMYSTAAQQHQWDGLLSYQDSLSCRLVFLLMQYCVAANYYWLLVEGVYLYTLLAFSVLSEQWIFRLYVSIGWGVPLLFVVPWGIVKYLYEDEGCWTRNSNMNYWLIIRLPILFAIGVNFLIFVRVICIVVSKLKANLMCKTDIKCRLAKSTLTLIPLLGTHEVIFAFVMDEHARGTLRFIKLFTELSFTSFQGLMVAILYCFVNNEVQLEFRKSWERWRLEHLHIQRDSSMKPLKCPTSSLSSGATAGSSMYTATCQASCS
# How it was run: (§1)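 Peptide-stimulated cAMP measured by two-step HTRF after a 30 min room-temperature incubation with receptor-expressing cells (hGLP-1R, hGIPR at 1×10^5 cells/ml; hGCGR at 2×10^5 cells/ml). Duplicate dilutions; EC50 from 4-parameter logistic fit of % Delta F.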
# [3] = target: T3, human glucagon receptor (GCGR) (Homo sapiens, UniProt P47871); assay: cAMP assay, human GCGR cells; details: tris-lipidated peptides; second replicate; read-out: Primary assay EC50 Gluc-R (n2)
# T3 construct: expressed in transfected cells
# T3 sequence (P47871 26-477): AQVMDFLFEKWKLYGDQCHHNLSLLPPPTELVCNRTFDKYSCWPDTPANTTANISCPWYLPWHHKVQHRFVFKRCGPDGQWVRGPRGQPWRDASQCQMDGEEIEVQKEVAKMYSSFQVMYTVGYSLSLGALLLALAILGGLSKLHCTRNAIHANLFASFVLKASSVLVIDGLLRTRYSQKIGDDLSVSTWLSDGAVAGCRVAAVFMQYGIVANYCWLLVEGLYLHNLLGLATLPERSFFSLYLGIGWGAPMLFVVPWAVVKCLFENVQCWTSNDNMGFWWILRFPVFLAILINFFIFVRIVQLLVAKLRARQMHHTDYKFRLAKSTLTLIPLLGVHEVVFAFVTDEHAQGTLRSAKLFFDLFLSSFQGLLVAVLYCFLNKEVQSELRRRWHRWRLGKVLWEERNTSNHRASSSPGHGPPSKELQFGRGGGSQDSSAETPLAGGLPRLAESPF
# How it was run: as §1
# [4] = target: T4, human glucose-dependent insulinotropic peptide receptor (GIPR) (Homo sapiens, UniProt P48546); assay: cAMP assay, human GIPR cells; details: tris-lipidated peptides; second replicate; read-out: Primary assay EC50 GIP-R (n2)
# T4 construct: expressed in transfected cells
# T4 sequence (P48546 22-466): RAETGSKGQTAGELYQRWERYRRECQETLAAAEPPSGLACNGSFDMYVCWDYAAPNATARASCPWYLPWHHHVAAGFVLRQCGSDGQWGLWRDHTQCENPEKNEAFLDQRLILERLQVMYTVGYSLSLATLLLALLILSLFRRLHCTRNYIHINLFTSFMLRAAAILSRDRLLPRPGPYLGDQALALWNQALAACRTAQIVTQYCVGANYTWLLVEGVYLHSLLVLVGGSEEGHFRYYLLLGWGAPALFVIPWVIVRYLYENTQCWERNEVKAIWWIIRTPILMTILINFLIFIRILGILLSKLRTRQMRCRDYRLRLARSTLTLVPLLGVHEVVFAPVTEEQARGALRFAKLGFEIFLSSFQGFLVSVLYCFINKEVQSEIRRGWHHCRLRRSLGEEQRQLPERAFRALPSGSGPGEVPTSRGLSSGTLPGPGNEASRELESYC
# How it was run: as §1
# [5] = mean of n1 and n2, read-out: INS1e assay EC50 Mean pM GLP-1R
# [6] = replicate n1, read-out: INS1e assay EC50 GLP-1R n1
# [7] = replicate n2, read-out: INS1e assay EC50 GLP-1R n2
# [8] = bis-lipidated peptides, mean of n1 and n2, read-out: Primary assay EC50 Mean pM GLP-1R
# [9] = bis-lipidated peptides, replicate n1, read-out: Primary assay EC50 GLP-1R n1
# [10] = bis-lipidated peptides, replicate n2, read-out: Primary assay EC50 GLP-1R n2
Structure (SMILES),"EC50 [1, 5] [pM]","EC50 [1, 6] [pM]","EC50 [1, 7] [pM]","EC50 [2, 8] [pM]","EC50 [2, 9] [pM]","EC50 [2, 10] [pM]","EC50 ([2]; tris-lipidated peptides, mean of n1 and n2, read-out: Primary assay EC50 Mean pM GLP-1R) [pM]","EC50 ([2]; tris-lipidated peptides, replicate n1, read-out: Primary assay EC50 GLP-1R n1) [pM]","EC50 ([2]; tris-lipidated peptides, replicate n2, read-out: Primary assay EC50 GLP-1R n2) [pM]",EC50 [3] [nM],EC50 [4] [nM]
CCCCCCCCCCCC(=O)N[C@@H](CCC(=O)NCCOCCOCC(=O)NCCOCCOCC(=O)NCCCC[C@H](NC(=O)[C@H](C)NC(=O)[C@@H](NC(=O)[C@H](Cc1ccccc1)NC(=O)[C@H](CCC(=O)O)NC(=O)[C@](C)(CCCCN)NC(=O)[C@H](C)NC(=O)[C@H](C)NC(=O)[C@H](CCC(=O)O)NC(=O)CNC(=O)[C@H](CCC(=O)O)NC(=O)[C@H](CC(C)C)NC(=O)[C@H](Cc1ccc(O)cc1)NC(=O)[C@H](CO)NC(=O)[C@H](CO)NC(=O)[C@H](CCCCNC(=O)COCCOCCNC(=O)COCCOCCNC(=O)CC[C@H](NC(=O)CCCCCCCCCCC)C(=O)O)NC(=O)[C@H](CC(=O)O)NC(=O)[C@H](CO)NC(=O)[C@@H](NC(=O)[C@](C)(Cc1ccccc1)NC(=O)[C@H](CO)NC(=O)CNC(=O)[C@H](CCC(=O)O)NC(=O)C(C)(C)NC(=O)[C@@H](N)Cc1c[nH]cn1)[C@@H](C)O)[C@@H](C)CC)C(=O)N[C@H](C(=O)N[C@H](C(=O)N[C@@H](CCC(=O)O)C(=O)NCC(=O)NCC(N)=O)C(C)C)C(C)C)C(=O)O [compound 257] (H-H[Aib]EGS[αMeF]TSDK([AEEA-AEEA-γGlu-Lauroyl])SSYLEGEAA[αMeK]EFIAK([AEEA-AEEA-γGlu-Lauroyl])VVEGG-NH2),577,812,342,8.4,4.36,12.4,–,–,–,–,–
CCCCCCCCCCCC(=O)N[C@@H](CCC(=O)NCCOCCOCC(=O)NCCOCCOCC(=O)NCCCC[C@H](NC(=O)[C@H](CO)NC(=O)[C@](C)(CO)NC(=O)[C@@H](NC(=O)[C@H](CC(=O)O)NC(=O)[C@H](CO)NC(=O)[C@@H](NC(=O)[C@](C)(Cc1ccccc1)NC(=O)[C@H](CO)NC(=O)CNC(=O)[C@H](CCC(=O)O)NC(=O)C(C)(C)NC(=O)[C@@H](N)Cc1c[nH]cn1)[C@@H](C)O)C(C)C)C(=O)N[C@@H](CC(C)C)C(=O)N[C@@H](CCC(=O)O)C(=O)NCC(=O)N[C@@H](CCC(=O)O)C(=O)N[C@@H](C)C(=O)N[C@@H](C)C(=O)N[C@@](C)(CCCCN)C(=O)N[C@@H](CCC(=O)O)C(=O)N[C@@H](Cc1ccccc1)C(=O)N[C@H](C(=O)N[C@@H](CCCCNC(=O)COCCOCCNC(=O)COCCOCCNC(=O)CC[C@H](NC(=O)CCCCCCCCCCC)C(=O)O)C(=O)N[C@@H](Cc1c[nH]c2ccccc12)C(=O)N[C@H](C(=O)N[C@H](C(=O)N[C@@H](CCC(=O)O)C(=O)NCC(=O)NCC(N)=O)C(C)C)C(C)C)[C@@H](C)CC)C(=O)O [compound 262] (H-H[Aib]EGS[αMeF]TSDV[αMeS]SK([AEEA-AEEA-γGlu-Lauroyl])LEGEAA[αMeK]EFIK([AEEA-AEEA-γGlu-Lauroyl])WVVEGG-NH2; N-terminus assumed),552,700,403,5.4,6.73,4.14,–,–,–,–,–
CCCCCCCCCCCC(=O)N[C@@H](CCC(=O)NCCOCCOCC(=O)NCCOCCOCC(=O)NCCCC[C@H](NC(=O)[C@H](C)NC(=O)[C@@H](NC(=O)[C@](C)(Cc1ccccc1)NC(=O)[C@H](CCC(=O)O)NC(=O)[C@](C)(CCCCN)NC(=O)[C@H](C)NC(=O)[C@H](C)NC(=O)[C@H](CCC(=O)O)NC(=O)CNC(=O)[C@H](CCC(=O)O)NC(=O)[C@H](CC(C)C)NC(=O)[C@H](CCCCNC(=O)COCCOCCNC(=O)COCCOCCNC(=O)CC[C@H](NC(=O)CCCCCCCCCCC)C(=O)O)NC(=O)[C@H](CO)NC(=O)[C@](C)(CO)NC(=O)[C@@H](NC(=O)[C@H](CC(=O)O)NC(=O)[C@H](CO)NC(=O)[C@@H](NC(=O)[C@](C)(Cc1ccccc1)NC(=O)[C@H](CO)NC(=O)CNC(=O)[C@H](CCC(=O)O)NC(=O)C(C)(C)NC(=O)[C@@H](N)Cc1c[nH]cn1)[C@@H](C)O)C(C)C)[C@@H](C)CC)C(=O)N[C@H](C(=O)N[C@H](C(=O)N[C@@H](CCC(=O)O)C(=O)NCC(=O)NCC(N)=O)C(C)C)C(C)C)C(=O)O [compound 405] (H-H[Aib]EGS[αMeF]TSDV[αMeS]SK([AEEA-AEEA-γGlu-Lauroyl])LEGEAA[αMeK]E[αMeF]IAK([AEEA-AEEA-γGlu-Lauroyl])VVEGG-NH2),–,110,–,–,–,3.66,–,–,–,–,–
CCCCCCCCCCCC(=O)N[C@@H](CCC(=O)NCCOCCOCC(=O)NCCOCCOCC(=O)NCCCC[C@H](NC(=O)[C@H](C)NC(=O)[C@@H](NC(=O)[C@H](CCCC)NC(=O)[C@H](CCC(=O)O)NC(=O)[C@](C)(CCCCN)NC(=O)[C@H](C)NC(=O)[C@H](C)NC(=O)[C@H](CCC(=O)O)NC(=O)CNC(=O)[C@H](CCC(=O)O)NC(=O)[C@H](CC(C)C)NC(=O)[C@H](CCCCNC(=O)COCCOCCNC(=O)COCCOCCNC(=O)CC[C@H](NC(=O)CCCCCCCCCCC)C(=O)O)NC(=O)[C@H](CO)NC(=O)[C@](C)(CO)NC(=O)[C@@H](NC(=O)[C@H](CC(=O)O)NC(=O)[C@H](CO)NC(=O)[C@@H](NC(=O)[C@](C)(Cc1ccccc1)NC(=O)[C@H](CO)NC(=O)CNC(=O)[C@H](CCC(=O)O)NC(=O)C(C)(C)NC(=O)[C@@H](N)Cc1c[nH]cn1)[C@@H](C)O)C(C)C)[C@@H](C)CC)C(=O)N[C@H](C(=O)N[C@H](C(=O)N[C@@H](CCC(=O)O)C(=O)NCC(=O)NCC(N)=O)C(C)C)C(C)C)C(=O)O [compound 407] (H-H[Aib]EGS[αMeF]TSDV[αMeS]SK([AEEA-AEEA-γGlu-Lauroyl])LEGEAA[αMeK]E[Nle]IAK([AEEA-AEEA-γGlu-Lauroyl])VVEGG-NH2),104,113,95.2,–,–,–,–,–,–,–,–
CCCCCCCCCCCC(=O)N[C@@H](CCC(=O)NCCOCCOCC(=O)NCCOCCOCC(=O)NCCCC[C@H](NC(=O)[C@H](Cc1ccc(O)cc1)NC(=O)[C@H](CO)NC(=O)[C@](C)(CO)NC(=O)[C@@H](NC(=O)[C@H](CC(=O)O)NC(=O)[C@H](CO)NC(=O)[C@@H](NC(=O)[C@](C)(Cc1ccccc1)NC(=O)[C@H](CO)NC(=O)CNC(=O)[C@H](CCC(=O)O)NC(=O)C(C)(C)NC(=O)[C@@H](N)Cc1c[nH]cn1)[C@@H](C)O)C(C)C)C(=O)N[C@@H](CCC(=O)O)C(=O)NCC(=O)N[C@@H](CCC(=O)O)C(=O)N[C@@H](C)C(=O)N[C@@H](C)C(=O)N[C@@](C)(CCCCN)C(=O)N[C@@H](CCCCNC(=O)COCCOCCNC(=O)COCCOCCNC(=O)CC[C@H](NC(=O)CCCCCCCCCCC)C(=O)O)C(=O)N[C@@H](Cc1ccccc1)C(=O)N[C@H](C(=O)N[C@@H](C)C(=O)N[C@@H](Cc1ccccc1)C(=O)N[C@@H](CCCCNC(=O)COCCOCCNC(=O)COCCOCCNC(=O)CC[C@H](NC(=O)CCCCCCCCCCC)C(=O)O)C(=O)N[C@H](C(=O)N[C@@H](CCC(=O)O)C(=O)NCC(=O)NCC(N)=O)C(C)C)[C@@H](C)CC)C(=O)O [compound 486] (H-H[Aib]EGS[αMeF]TSDV[αMeS]SYK([AEEA-AEEA-γGlu-Lauroyl])EGEAA[αMeK]K([AEEA-AEEA-γGlu-Lauroyl])FIAFK([AEEA-AEEA-γGlu-Lauroyl])VEGG-NH2; N-terminus assumed),–,–,–,–,–,–,212,165,259,19.9,19.9
